Laboratory results as given in patent publication US5792831A, “Analogues of magainin peptides containing D-amino acids” (priority 1994, dated 1998).
Values after ≈ are worked out from the molar mass of the structure shown. Each block holds one molecule with its values, some of them ahead of it. Square brackets hold non-standard residues; d marks the D form. Peptide text beside a SMILES is read from it. * marks the point of attachment. Octanoyl = CCCCCCCC(=O)*

How the values were obtained:
Assay type in all cases: cell-based
melanoma cell line WM852 = test: Melanoma growth reduction (Example 5); settings: for % Growth Reduction (7 days) WM852-2%: 2% tumor media; for % Growth Reduction (7 days) WM852-PF: PF media
Method: (§1) Melanoma cell lines WM-239-A (metastatic melanoma), WM278 (primary melanoma), WM793 (primary melanoma) and WM1158 (metastatic melanoma) were seeded in 24-well plates at a concentration of 7.5×10^4 cells/ml containing 2% tumor medium.
(§2) Peptides (SEQ ID NO:6) and D-(SEQ ID NO:6), in which each amino acid residue is a D-amino residue or a glycine residue, were frozen at -20° C. in […] aliquots at a concentration of 25 mg/ml. Each peptide was then dissolved in sterile distilled water at a dilution of 1:1,000 or 1:5,000 to provide peptide concentrations of 25 μg/ml or 5 μg/ml, respectively. The peptides at the 25 μg/ml or 5 μg/ml concentrations were then added to the plates containing the melanoma cells. The amount of ^3 H-thymidine incorporation for each well was taken on days 1, 3, and 7.
(§3) Peptides (SEQ ID NO:10) and D-(SEQ ID NO:10), in which each amino acid is a D-amino acid residue, are tested for % growth reduction of melanoma cell lines WM852 (grown in 2% tumor media or PF media), WM983A (grown in 2% tumor media or PF media), WM793 (grown in 2% tumor media), and WM1985 (grown in PF media) according to the procedure of Example 4, except that only a concentration of 25 μg/ml was employed for (SEQ ID NO:10), and concentrations of 1.0, 2.5, 5.0, 10.0, and 25.0 μg/ml were employed for D-(SEQ ID NO:10).

[1] = system: melanoma cell line WM983A; test: Melanoma growth reduction (Example 5); settings: for % Growth Reduction (7 days) WM-983A-2%: 2% tumor media; for % Growth Reduction (7 days) WM983A-PF: PF media
Method: as §1, §2, §3

melanoma cell line WM793 = test: Melanoma growth reduction (Example 5); settings: 2% tumor media
Method: as §1, §2, §3

[2] = system: melanoma cell line WM1985; test: Melanoma growth reduction (Example 5); settings: PF media
Method: as §1, §2, §3

P. aeruginosa ATCC 27853 = test: Antibacterial MIC assay, microtiter broth dilution (NCCLS M7-T2); settings: Mueller Hinton broth, 16-20 hours at 37° C.
Method: (§4) The procedure for the following antibacterial assay is based upon the guidelines of the National Committee for Clinical Laboratory Standards, Document M7-T2, Volume 8, No. 8, 1988.
(§5) were prepared at a concentration of 512 μpg/ml in sterile deionized distilled water and stored at -70° C.
(§6) 1.5×10^5 CFUs/ml of either S. aureus ATCC 25923, E. coli ATCC 25922, P. aeruginosa ATCC 27853, or C. albicans were added to the wells in full strength Mueller Hinton broth (BBL 11443) from a mid-log culture. The inoculums are standarized spectrophotometrically at 600 nm and is verified by colony counts. The plates are incubated for 16-20hours at 37° C., and the minimal inhibitory concentration (MIC) for each peptide is determined. Minimal inhibitory concentration is defined as the lowest concentration of peptide which produces a clear well in the microtiter plate.

S. aureus ATCC 25923 = test: as above; settings: Mueller Hinton broth, 16-20 hours at 37° C.
Method: as §4, §5, §6

E. coli ATCC 25922 = test: as above; settings: Mueller Hinton broth, 16-20 hours at 37° C.
Method: as §4, §5, §6

C. albicans = test: MIC assay, microtiter broth dilution (NCCLS M7-T2); settings: Mueller Hinton broth, 16-20 hours at 37° C.
Method: as §4, §5, §6

Structure (SMILES): CC(C)C[C@@H](NC(=O)[C@@H](CCCCN)NC(=O)[C@@H](CCCCN)NC(=O)[C@@H](CC(C)C)NC(=O)[C@@H](CC(C)C)NC(=O)[C@@H](CCCCN)NC(=O)[C@@H](CCCCN)NC(=O)[C@@H](CC(C)C)NC(=O)[C@@H](CCCCN)NC(=O)[C@@H](CCCCN)NC(=O)[C@@H](CC(C)C)NC(=O)[C@@H](CC(C)C)NC(=O)[C@@H](CCCCN)NC(=O)[C@H](N)CCCCN)C(N)=O [D-(SEQ ID NO:10)] (H-[dK][dK][dL][dL][dK][dK][dL][dK][dK][dL][dL][dK][dK][dL]-NH2)
- % Growth Reduction (7 days) WM852-2% (melanoma cell line WM852; dose 1.0 μg/ml): 3.0%
- % Growth Reduction (7 days) WM852-PF (melanoma cell line WM852; dose 1.0 μg/ml): 2.9%
- % Growth Reduction (7 days) WM852-2% (melanoma cell line WM852; dose 2.5 μg/ml): 5.4%
- % Growth Reduction (7 days) WM852-PF (melanoma cell line WM852; dose 2.5 μg/ml): 22.9%
- % Growth Reduction (7 days) WM852-2% (melanoma cell line WM852; dose 5.0 μg/ml): 8.8%
- % Growth Reduction (7 days) WM852-PF (melanoma cell line WM852; dose 5.0 μg/ml): 32.4%
- % Growth Reduction (7 days) WM852-2% (melanoma cell line WM852; dose 10.0 μg/ml): 16.2%
- % Growth Reduction (7 days) WM852-PF (melanoma cell line WM852; dose 10.0 μg/ml): 80.6%
- % Growth Reduction (7 days) WM852-2% (melanoma cell line WM852; dose 25 μg/ml): 84.7%
- % Growth Reduction (7 days) WM852-PF (melanoma cell line WM852; dose 25 μg/ml): 91.1%
- % Growth Reduction (7 days) WM-983A-2% ([1]; dose 1.0 μg/ml): 0%
- % Growth Reduction (7 days) WM983A-PF ([1]; dose 1.0 μg/ml): 3.3%
- % Growth Reduction (7 days) WM-983A-2% ([1]; dose 2.5 μg/ml): 0%
- % Growth Reduction (7 days) WM983A-PF ([1]; dose 2.5 μg/ml): 13.9%
- % Growth Reduction (7 days) WM-983A-2% ([1]; dose 5.0 μg/ml): 0%
- % Growth Reduction (7 days) WM983A-PF ([1]; dose 5.0 μg/ml): 29.8%
- % Growth Reduction (7 days) WM-983A-2% ([1]; dose 10.0 μg/ml): 13.8%
- % Growth Reduction (7 days) WM983A-PF ([1]; dose 10.0 μg/ml): 84.9%
- % Growth Reduction (7 days) WM-983A-2% ([1]; dose 25 μg/ml): 71.3%
- % Growth Reduction (7 days) WM983A-PF ([1]; dose 25 μg/ml): 90.0%
- % Growth Reduction (7 days) WM793-2% (melanoma cell line WM793; dose 2.5 μg/ml): 18.2%
- % Growth Reduction (7 days) WM793-2% (melanoma cell line WM793; dose 5.0 μg/ml): 0%
- % Growth Reduction (7 days) WM793-2% (melanoma cell line WM793; dose 10.0 μg/ml): 12.3%
- % Growth Reduction (7 days) WM793-2% (melanoma cell line WM793; dose 25 μg/ml): 84.9%
- % Growth Reduction (7 days) WM1985-PF ([2]; dose 1.0 μg/ml): 5.5%
- % Growth Reduction (7 days) WM1985-PF ([2]; dose 2.5 μg/ml): 23.6%
- % Growth Reduction (7 days) WM1985-PF ([2]; dose 5.0 μg/ml): 52.1%
- % Growth Reduction (7 days) WM1985-PF ([2]; dose 10.0 μg/ml): 84.3%
- % Growth Reduction (7 days) WM1985-PF ([2]; dose 25 μg/ml): 92.6%

- MIC P. aeruginosa (P. aeruginosa ATCC 27853): 4 µg/mL (≈ 2.71 µM)
- MIC S. aureus (S. aureus ATCC 25923): 4 µg/mL (≈ 2.71 µM)
- MIC E. coli (E. coli ATCC 25922): 8 µg/mL (≈ 5.41 µM)
- MIC C. albicans (C. albicans): 32 µg/mL (≈ 21.6 µM)
Structure (SMILES): CCCCCCCC(=O)N[C@@H](CC(C)C)C(=O)N[C@@H](CCCCN)C(=O)N[C@@H](CCCCN)C(=O)N[C@@H](CC(C)C)C(=O)N[C@@H](CC(C)C)C(=O)N[C@@H](CCCCN)C(=O)N[C@@H](CCCCN)C(=O)N[C@@H](CC(C)C)C(=O)N[C@@H](CCCCN)C(=O)N[C@@H](CCCCN)C(=O)N[C@@H](CC(C)C)C(N)=O [Oct-(SEQ ID NO:11)-NH2, reference compound] (Octanoyl-LKKLLKKLKKL-NH2)

- MIC P. aeruginosa (P. aeruginosa ATCC 27853): 4 µg/mL (≈ 2.71 µM)
- MIC S. aureus (S. aureus ATCC 25923): 4 µg/mL (≈ 2.71 µM)
- MIC E. coli (E. coli ATCC 25922): 8 µg/mL (≈ 5.41 µM)
- MIC C. albicans (C. albicans): 32 µg/mL (≈ 21.6 µM)
Structure (SMILES): CCCCCCCC(=O)N[C@H](CC(C)C)C(=O)N[C@H](CCCCN)C(=O)N[C@H](CCCCN)C(=O)N[C@H](CC(C)C)C(=O)N[C@H](CC(C)C)C(=O)N[C@H](CCCCN)C(=O)N[C@H](CCCCN)C(=O)N[C@H](CC(C)C)C(=O)N[C@H](CCCCN)C(=O)N[C@H](CCCCN)C(=O)N[C@H](CC(C)C)C(N)=O [Oct-D-(SEQ ID NO:11)-NH2] (Octanoyl-[dL][dK][dK][dL][dL][dK][dK][dL][dK][dK][dL]-NH2)
